Laboratory results reported in paper PMC12435777, “Assessing Acetyl-Coenzyme A Carboxylase Activity and Inhibition in Caenorhabtidis elegans Using a Partially Purified Protein Extract” (Analytical Chemistry, 2025).

Molecular target: acetyl-CoA carboxylase (ACC, POD-2) (Caenorhabditis elegans, UniProt H2L0M0)
Assay: real-time HPLC and NMR kinetics of malonyl-CoA formation with partially purified enzyme extract; Ki estimated from the change in KM
Type: biochemical

acetyl-CoA carboxylase (ACC, POD-2), sequence (H2L0M0 entry or part of it): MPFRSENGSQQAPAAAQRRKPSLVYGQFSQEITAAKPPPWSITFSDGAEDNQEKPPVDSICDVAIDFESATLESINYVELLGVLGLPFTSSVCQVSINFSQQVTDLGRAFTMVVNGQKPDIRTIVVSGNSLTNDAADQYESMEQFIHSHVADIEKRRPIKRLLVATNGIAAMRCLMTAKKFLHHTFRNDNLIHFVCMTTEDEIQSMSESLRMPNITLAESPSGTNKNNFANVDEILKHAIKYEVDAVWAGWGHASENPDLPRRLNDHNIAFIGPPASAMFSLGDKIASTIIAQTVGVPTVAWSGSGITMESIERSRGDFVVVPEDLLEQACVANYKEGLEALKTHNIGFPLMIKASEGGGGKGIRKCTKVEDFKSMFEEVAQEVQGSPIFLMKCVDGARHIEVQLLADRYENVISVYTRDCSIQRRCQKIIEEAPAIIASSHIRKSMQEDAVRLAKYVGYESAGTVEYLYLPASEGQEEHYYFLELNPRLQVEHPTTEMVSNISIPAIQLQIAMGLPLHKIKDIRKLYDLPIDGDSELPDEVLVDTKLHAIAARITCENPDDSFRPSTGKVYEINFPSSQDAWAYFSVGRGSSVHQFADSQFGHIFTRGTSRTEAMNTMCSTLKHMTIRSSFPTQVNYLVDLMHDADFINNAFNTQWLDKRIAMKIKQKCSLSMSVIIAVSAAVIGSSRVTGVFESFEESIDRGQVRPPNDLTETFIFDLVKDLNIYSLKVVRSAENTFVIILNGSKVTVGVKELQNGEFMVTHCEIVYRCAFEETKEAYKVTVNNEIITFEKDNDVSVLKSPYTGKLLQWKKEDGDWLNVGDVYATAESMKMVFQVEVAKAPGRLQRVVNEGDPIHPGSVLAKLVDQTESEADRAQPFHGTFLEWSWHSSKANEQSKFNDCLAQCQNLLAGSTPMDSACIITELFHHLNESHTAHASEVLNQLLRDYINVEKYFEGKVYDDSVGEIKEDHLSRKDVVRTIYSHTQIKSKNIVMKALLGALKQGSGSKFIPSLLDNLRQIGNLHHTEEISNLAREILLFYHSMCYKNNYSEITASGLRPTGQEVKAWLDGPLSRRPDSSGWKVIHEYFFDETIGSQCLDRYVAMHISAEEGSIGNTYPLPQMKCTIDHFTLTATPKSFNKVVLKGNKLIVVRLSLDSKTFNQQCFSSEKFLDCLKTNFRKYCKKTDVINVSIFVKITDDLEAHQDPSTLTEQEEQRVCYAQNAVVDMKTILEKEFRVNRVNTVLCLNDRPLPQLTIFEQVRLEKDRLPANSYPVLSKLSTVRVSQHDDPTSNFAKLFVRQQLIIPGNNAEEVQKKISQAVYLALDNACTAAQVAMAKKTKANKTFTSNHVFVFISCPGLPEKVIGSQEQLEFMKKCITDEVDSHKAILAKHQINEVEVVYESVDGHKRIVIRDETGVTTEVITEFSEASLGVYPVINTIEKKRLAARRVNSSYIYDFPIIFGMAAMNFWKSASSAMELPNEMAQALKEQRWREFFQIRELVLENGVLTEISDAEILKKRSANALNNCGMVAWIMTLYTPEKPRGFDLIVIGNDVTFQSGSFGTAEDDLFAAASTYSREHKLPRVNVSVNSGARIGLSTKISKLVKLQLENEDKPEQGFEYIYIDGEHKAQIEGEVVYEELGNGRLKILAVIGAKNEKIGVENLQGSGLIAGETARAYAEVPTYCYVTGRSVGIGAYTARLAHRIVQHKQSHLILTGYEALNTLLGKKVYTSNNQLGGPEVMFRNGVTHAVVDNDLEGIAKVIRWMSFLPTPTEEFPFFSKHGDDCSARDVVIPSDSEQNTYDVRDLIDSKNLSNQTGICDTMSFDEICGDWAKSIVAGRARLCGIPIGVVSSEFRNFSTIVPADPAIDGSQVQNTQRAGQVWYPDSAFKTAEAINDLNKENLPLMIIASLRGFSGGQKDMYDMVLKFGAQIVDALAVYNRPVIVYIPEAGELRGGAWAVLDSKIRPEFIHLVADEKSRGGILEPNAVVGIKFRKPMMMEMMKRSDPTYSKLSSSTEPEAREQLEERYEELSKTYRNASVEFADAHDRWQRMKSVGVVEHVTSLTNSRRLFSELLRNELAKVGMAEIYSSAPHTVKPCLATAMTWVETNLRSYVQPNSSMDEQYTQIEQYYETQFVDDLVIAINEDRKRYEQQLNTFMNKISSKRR

Q: How did the Ki turn out when C=CCCCCCCCCCCC[C@@H](O)C[C@@H](O)COC(C)=O [avocadene acetate] was run?
A: ~12.5 µM
